Measured values reported in BindingDB's records for doi:10.3109/14756360903179401 (Universidad Nacional Autonoma De Mexico, 2010).

Biological target: T1, cDNA, FLJ78895, highly similar to 3-oxo-5-alpha-steroid 4-dehydrogenase 1 (Homo sapiens, UniProt B7Z4L2)
T1 sequence (B7Z4L2 whole entry): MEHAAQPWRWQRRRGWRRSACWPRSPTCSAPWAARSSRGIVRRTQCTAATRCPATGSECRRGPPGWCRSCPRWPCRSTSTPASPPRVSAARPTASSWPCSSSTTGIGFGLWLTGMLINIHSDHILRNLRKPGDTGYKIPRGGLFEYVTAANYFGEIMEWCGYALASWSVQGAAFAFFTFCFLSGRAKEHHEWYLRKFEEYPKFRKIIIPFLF
Experiment: 5α-Reductase Activity Assay
Details: pH 6.5; 37 °C
Experimental: The reaction mixture contained a final volume of 1 mL: 1 mM dithiothreitol, sodium phosphate buffer 40 mM, at pH 6.5 for human prostate, 2 mM NADPH, 2 nM [1,2,6,7-3H]T [Cabeza et al., Steroids 60:630-5]. The reaction in duplicate was started when it was added to the enzymatic fraction (500 μg protein in a volume of 80 μL) incubated at 37°C for 60 min [Hirosumi et al., J. Steroid Biochem. Mol. Biol., 52:357-63] and stopped by mixing with 1 mL of dichloromethane; this was considered as the end point. Incubation without tissue was used as a control. The mixture (incubation medium/dichloromethane) was agitated on a vortex for 1 min and the dichloromethane phase was separated and placed in another tube. This procedure was repeated four more times. The dichloromethane extract was evaporated to dryness under a nitrogen stream and suspended in […] that was spotted on high-performance thin layer chromatography (HPTLC) Keiselgel 60 F254 plates. T and DHT were used as carriers, and were applied in different lanes on both lateral sides of the plates (T, T + DHT, and DHT). The plates were developed in chloroform-acetone, 9:1, and were air-dried; the chromatography was repeated twice more. The steroid carriers were detected using phosphomolybdic acid reagent (DHT) and with an ultraviolet (UV) lamp (254 nm) (T). After the plates were segmented into pieces of 1 cm each, these were cut off and the strips soaked in 5 mL of Ultima Gold (Packard). The radioactivity was determined in a scintillation counter (Packard Tri-Carb 2100 TR). The radioactivity content in the segment corresponding to T and DHT carriers was identified. Radioactivity with identical chromatographic behavior to the DHT standard was considered as the DHT transformation.

Compound | IC50
CC(=O)O[C@]1(C(C)=O)CCC2C3C=C(Cl)C4=CC(=O)CC[C@]4(C)C3CC[C@@]21C (stereo partly drawn) [6-Chloro-3,20-dioxopregna-4,6-diene-17α-yl acetate (9)] | 19 nM
CC(C)(C)NC(=O)C1CCC2C3CCC4NC(=O)C=C[C@]4(C)C3CC[C@]12C (stereo not given in full) [Finasteride (3)] | 8.5 nM
CC(=O)O[C@]1(C(C)=O)CCC2C3CCC4=CC(=O)CC[C@]4(C)C3CC[C@@]21C (stereo partly drawn) [17α-Acetoxyprogesterone (6)] | 10 nM
CC(=O)O[C@]1(C(C)=O)CCC2C3C(CC[C@@]21C)[C@@]1(C)CCC(=O)C=C1[C@H]1O[C@@H]31 (stereo partly drawn) [3,20-Dioxo-6,7-epoxypregn-4-ene-7α-yl acetate (8)] | 22 nM
CC(=O)O[C@]1(C(C)=O)CCC2C3C=CC4=CC(=O)CC[C@]4(C)C3CC[C@@]21C (stereo partly drawn) [3,20-Dioxopregna-4,6-dien-17α-yl acetate (7)] | 70 nM
